This note sets out measurements from patent publication US11464823B2, “Curcumin carbon quantum dots and use thereof” (priority 2018, dated 2022).

By CC50 is commonly meant the concentration giving 50% cytotoxicity. Lower therefore signals harm at low concentration.

One series has as its system EV71. As to the kind of experiment: Cytopathic effect (CPE) inhibition assay, RD cells infected with EV71 (pre-, post-, co-treatment). The series is classed as cell-based, human rhabdomyosarcoma (RD) cells. Here is the method: RD cells were seeded at 7.5×10^3 cells/well in 96-well plates and incubated for 24 hours at 37° C. To analyze how Cur-CQDs affect the infectivity of EV71, Cur-CQDs pre-treatment, post-treatment, co-treatment assay was taken as follows. For pre-treatment, Cur-CQDs were pre-incubated with RD cells at 37° C. for 24 hours and then cultured with EV71 for 48 hours at 37° C. For post-treatment, EV71 were pre-incubated with RD cells at 37° C. for 24 hours, after that, cell monolayers were washed with PBS to remove non-adherent virus and further incubated with DMEM (containing 2% FBS and Cur-CQDs) at 37° C. for 48 hours. For co-treatment, EV71 were pre-incubated with series of CQDcurs at 37° C. for 1 hour, then cultured with RD cells for 72 hours at 37° C. Negative (cells only) and positive (cells infected with EV71 without Cur-CQDs) controls were set as well.
Background: Protection from cytopathic effect is a common read-out in antiviral testing.

A short description of series [1]: Cytotoxicity / cell viability (Presto blue). The format is cell-based. Particulars: human, RD cells. Here is the method: The in vitro cellular viability of the as-prepared Cur-CQDs was evaluated using the Presto blue. First, approximately 7.5×10^3 RD cells/well were seeded in 96-cell plates and were fed with DMEM containing 10% fetal bovine serum (FBS). After 24 hours of incubation in a humidified incubator with 5% CO2 at 37° C., the medium was removed from each well, and RD cells were washed with phosphate buffered saline (PBS, pH 7.4). Then, sample solutions (Cur-CQDs with different concentrations) or the control solutions were added in and incubated with cells for 24 hours to 72 hours. Each concentration was tested with 4 sets of parallel samples. After that, the culture medium was replaced with Presto blue and incubated for another 1 hour at 37° C. Finally, fluorescence was measured at an excitation wavelength at 540 nm and an emission wavelength at 590 nm with a BioTek Microplate Reader. The viability of cells was expressed as the percentage of control untreated cells (100%).

Take `COc1cc(/C=C/C(=O)CC(=O)/C=C/c2ccc(O)c(OC)c2)ccc1O` [Curcumin]: in the series on EV71 (Enterovirus A, EV71 in RD cell, read-out: Antiviral activity EC50 (concentration at which inhibition rate of CPE reaches halfway between baseline and maximum)), the EC50 was more than 200 µg/mL. Besides, the selectivity ratio in the series with EV71 (human) stood at 0.1. The compound also showed a CC50 in series [1] of more than 13 µg/mL.
